{
  "source": "paper PMC7759869",
  "about": "(Biomedicines, 2020)",
  "key": {"[1]": {"target": "T1, aldehyde oxidase (Homo sapiens, UniProt Q06278)", "T1 construct": "purchased Gentest Corp., Woburn, MA, USA; host or cells: insect cells (baculovirus)", "T1 sequence (Q06278 1-1338)": "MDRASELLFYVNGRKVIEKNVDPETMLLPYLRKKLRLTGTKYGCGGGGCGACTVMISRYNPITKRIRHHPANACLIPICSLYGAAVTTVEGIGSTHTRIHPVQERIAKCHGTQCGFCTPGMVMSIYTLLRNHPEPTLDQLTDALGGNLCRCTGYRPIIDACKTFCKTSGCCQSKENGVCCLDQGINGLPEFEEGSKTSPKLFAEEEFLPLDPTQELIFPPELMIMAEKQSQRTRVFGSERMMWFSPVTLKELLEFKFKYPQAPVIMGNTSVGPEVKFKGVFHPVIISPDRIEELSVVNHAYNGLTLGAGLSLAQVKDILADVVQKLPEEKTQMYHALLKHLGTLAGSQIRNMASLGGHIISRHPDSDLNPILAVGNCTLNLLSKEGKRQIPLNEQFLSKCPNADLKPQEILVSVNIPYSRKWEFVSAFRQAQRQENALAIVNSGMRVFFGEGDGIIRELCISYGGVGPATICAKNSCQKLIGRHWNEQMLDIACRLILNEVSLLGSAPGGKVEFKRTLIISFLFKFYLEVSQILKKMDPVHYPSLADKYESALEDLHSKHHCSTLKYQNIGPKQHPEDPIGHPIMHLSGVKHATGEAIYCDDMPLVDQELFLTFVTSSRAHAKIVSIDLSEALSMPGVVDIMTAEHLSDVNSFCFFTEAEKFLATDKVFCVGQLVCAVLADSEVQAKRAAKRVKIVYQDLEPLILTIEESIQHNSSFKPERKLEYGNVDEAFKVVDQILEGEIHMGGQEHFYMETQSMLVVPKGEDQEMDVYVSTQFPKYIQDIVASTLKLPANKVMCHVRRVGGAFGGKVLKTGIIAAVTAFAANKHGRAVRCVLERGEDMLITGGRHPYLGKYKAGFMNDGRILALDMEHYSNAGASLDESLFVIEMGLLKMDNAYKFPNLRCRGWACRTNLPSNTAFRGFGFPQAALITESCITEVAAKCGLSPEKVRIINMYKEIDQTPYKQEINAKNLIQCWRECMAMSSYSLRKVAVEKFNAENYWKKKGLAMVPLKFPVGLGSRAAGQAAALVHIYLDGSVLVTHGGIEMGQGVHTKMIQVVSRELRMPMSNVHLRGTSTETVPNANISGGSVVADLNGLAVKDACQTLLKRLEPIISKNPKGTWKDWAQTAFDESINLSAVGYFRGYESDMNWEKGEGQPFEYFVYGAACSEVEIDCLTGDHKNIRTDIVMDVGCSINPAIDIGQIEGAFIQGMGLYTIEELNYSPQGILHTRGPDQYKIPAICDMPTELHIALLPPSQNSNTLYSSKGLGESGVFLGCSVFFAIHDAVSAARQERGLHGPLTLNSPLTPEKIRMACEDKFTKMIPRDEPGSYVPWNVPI", "experiment": "Oxidation of cabozantinib by recombinant aldehyde oxidase", "assay_type": "in vitro ADME", "conditions": "human recombinant enzyme, data not shown"}, "[2]": {"target": "T2, FMO3 (Homo sapiens, UniProt P31513)", "T2 construct": "purchased Gentest Corp., Woburn, MA, USA; host or cells: insect cells (baculovirus)", "T2 sequence (P31513 1-532)": "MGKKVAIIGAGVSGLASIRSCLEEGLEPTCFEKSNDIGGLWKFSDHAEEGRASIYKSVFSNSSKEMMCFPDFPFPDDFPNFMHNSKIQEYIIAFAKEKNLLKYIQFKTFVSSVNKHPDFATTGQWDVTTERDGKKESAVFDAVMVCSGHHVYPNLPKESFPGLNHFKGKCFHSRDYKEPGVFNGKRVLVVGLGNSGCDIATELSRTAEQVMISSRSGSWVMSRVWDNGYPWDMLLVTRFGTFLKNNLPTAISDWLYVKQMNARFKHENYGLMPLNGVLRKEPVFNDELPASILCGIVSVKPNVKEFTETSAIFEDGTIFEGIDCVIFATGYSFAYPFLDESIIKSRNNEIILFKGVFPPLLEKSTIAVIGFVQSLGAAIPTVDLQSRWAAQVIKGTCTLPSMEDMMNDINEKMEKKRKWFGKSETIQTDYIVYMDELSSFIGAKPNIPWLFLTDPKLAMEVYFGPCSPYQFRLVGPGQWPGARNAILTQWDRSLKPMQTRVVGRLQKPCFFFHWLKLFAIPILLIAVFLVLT", "experiment": "Oxidation of cabozantinib by recombinant FMO3", "assay_type": "in vitro ADME", "conditions": "human recombinant enzyme, data not shown"}, "[3]": {"tested_on": "RET", "conditions": "estimated; cited from earlier work"}},
  "note": "pIC50: −log10 of the molar value.",
  "data": [
    {"compound": "COc1cc2nccc(Oc3ccc(NC(=O)C4(C(=O)Nc5ccc(F)cc5)CC4)cc3)c2cc1OC", "note": "[cabozantinib, N′1-{4-[(6,7-dimethoxyquinolin-4-yl)oxy]phenyl}-N1-(4-fluorophenyl)cyclopropane-1,1-dicarboxamide]", "values": [
      {"measurement": "Oxidation of cabozantinib by aldehyde oxidase", "setting": "[1]", "value": "ineffective"},
      {"measurement": "Oxidation of cabozantinib by FMO 3", "setting": "[2]", "value": "ineffective"},
      {"measurement": "pIC50", "setting": "[3]", "value": "[…]"}
    ]}
  ]
}
